Measured values from patent US20050026236A1, “PDE 10 cell-based assay and sequences” (Pfizer Inc, priority 2001, published 2005).

How the values were obtained:
[1] = test system: primary striatal medium spiny neurons; assay: cGMP accumulation in SNP-stimulated striatal cultures; assay type: cell-based, rat; settings: for EC200 (concentration giving a 2-fold increase in cGMP): concentration yielding a 2-fold increase in cGMP, SNP 100 μM for 2 min after 20 min inhibitor incubation
Description: (§1) Striatal cultures were prepared as previously described (Ventimiglia et al., Eur. J. Neurosci. 7: 213-222, 1995). Briefly, striata (caudate nucleus and putamen) were dissected from E17 rats, dissociated to produce a single cell suspension, and plated at a density of 5×10^4 neurons/well in 96-well plates coated with poly-L-ornithine/laminin (Cat. No. 354657, BD Biosciences, Bedford, Mass.). The cells were plated in Neurobasal medium (Cat. No. 21103-049, Gibco BRL, Grand Island, N.Y.) with B27 supplements (Cat. No. 17504-010, Gibco BRL) and human recombinant brain-derived neurotrophic factor (BDNF) (100 ng/ml) (Cat. No. 248-BD, R & D Systems, Minneapolis, Minn.). Striatal medium spiny neurons comprised 50-60% of cells in these cultures, as confirmed by a GABA immunoreactivity protocol as previously described (Ventimiglia et al., 1995, supra). Expression of PDE10A mRNA in these cultures was confirmed by RNase protection assay, as further described below.
(§2) After approximately four days in vitro, the striatal cells were washed with Ca^2+/Mg^2+ free phosphate buffered saline (pH 7.4) and preincubated for an hour in a buffer containing Ca^2+/Mg^2+ free phosphate buffered saline, 30 mM HEPES (pH 7.4), 1 mM CaCl2, 1 mg/ml dextrose, and 5 mM MgCl2. The striatal cells were then exposed to one of the PDE inhibitors and incubated for 20 min. at 37° C. When measuring cGMP, the neurons were stimulated with sodium nitroprusside (SNP) (100 μM) for two min. after the 20 min. incubation with the PDE inhibitor.
(§3) The cells were lysed using a 9:1 combination of SPA direct screening Assay Buffer (0.05 M acetate with 0.01% sodium azide) and Buffer A (133 mg/ml dodecyltrimethylammonium bromide), and the lysates were frozen on dry ice.

[2] = test system: primary striatal medium spiny neurons; assay: cAMP accumulation in forskolin-stimulated striatal cultures; assay type: cell-based, rat; settings: ratio of EC200 values in striatal cultures
Description: as §1, §2, §3

PDE10A [3] = assay: Papaverine inhibition of PDE10A, SPA-based PDE assay; assay type: biochemical
Description: Phosphodiesterases 7-11 were generated from full length recombinant clones transfected into SF9 cells as previously described (Fisher et al., Biochem. Biophys. Res. Comm. 246: 570-577, 1998; Fisher et al., J. Biol. Chem. 273: 15559-15564, 1998b; Soderling et al., PNAS 96: 7071-7076, 1999; Fawcett et al., PNAS 97: 3702-3707, 2000). The enzymes were purified by FPLC from the soluble fraction of cell lysates as described in Boolell et al., supra.
PDE activity was measured using a SPA-based method as previously described (Fawcett et al., 2000). Assays were conducted using a fixed amount of PDE10A enzyme in the presence of varying inhibitor concentrations. […] The final assay volume was adjusted to 100 μl with assay buffer (20 mM Tris-HCl pH 7.4, 5 mM MgCl2, 1 mg/ml bovine serum albumin).
Reactions were initiated with the addition of enzyme. Samples were incubated for 30-60 min. at 30° C. to give <30% substrate turnover and terminated with 50 μl yttrium silicate SPA beads (Amersham) containing 3 mM of the appropriate unlabelled cyclic nucleotide. Plates were re-sealed and shaken for 20 min.; the beads were then allowed to settle for 30 min. in the dark and then counted on a TopCount plate reader (Packard, Meriden, Conn.). Radioactivity units were converted to percent activity as compared to an uninhibited control (100%). […]

PDE1 = settings: substrate at 1/3 Km
PDE7 = settings: substrate at 1/3 Km
[4] = test system: primary striatal medium spiny neurons; assay: cGMP accumulation in cultured primary striatal medium spiny neurons; assay type: cell-based, rat; settings: 100 μM; SNP-stimulated
PDE10A [5] = settings: cited from earlier work
[6] = test system: primary striatal medium spiny neurons; assay: cAMP accumulation in cultured primary striatal medium spiny neurons; settings: Rattus norvegicus, Neuron

Q: With `CC(C)Cn1c(=O)n(C)c(=O)c2[nH]cnc21` [IBMX, 3-isobutyl-1-methylxanthine] as the compound, how does the EC200 (concentration giving a 2-fold increase in cGMP) ([1]; Rattus norvegicus, Neuron) read?
A: 19 µM

Q: And the EC200 (concentration giving a 2-fold increase in cGMP) [1]?
A: 19.5 µM

Q: What about the “cAMP EC200/cGMP EC200” value [2] of the same compound?
A: 1.5

Q: Which mode of inhibition (PDE10A [3]) does the source give for `COc1ccc(Cc2nccc3cc(OC)c(OC)cc23)cc1OC` [Papaverine] here?
A: competitive inhibitor

Q: What about the “cGMP levels elevated over cultures stimulated with SNP alone (maximal effect)” value ([1]; 100 μM papaverine, SNP 100 μM) of the same compound?
A: 5 fold

Q: What about the “effect on cGMP levels in unstimulated cells” value ([1]; cells unstimulated by SNP or forskolin) of the same compound?
A: did not affect

Q: What about the IC50 (PDE1) of the same compound?
A: 37 µM

Q: And the IC50 (PDE7)?
A: 27 µM

Q: Which results are given for `COc1ccc(C2CNC(=O)C2)cc1OC1CCCC1` (stereo not shown) [Rolipram, rolipram]?
A: EC200 (concentration giving a 2-fold increase in cGMP) ([1]; Rattus norvegicus, Neuron): 29.2 ± 10.3 µM; concentration needed to double the rate of cGMP accumulation relative to cAMP EC200 ([1]; higher than cAMP EC200 of 2.5 μM): 10 fold; cAMP EC200/cGMP EC200 [2]: 0.09

Q: What does the source list for `CCCOc1ccccc1-c1nc2nn[nH]c2c(=O)[nH]1` [Zaprinast, zaprinast]?
A: EC200 (concentration giving a 2-fold increase in cGMP) ([1]; Rattus norvegicus, Neuron): > 100 µM; EC200 (concentration giving a 2-fold increase in cGMP) [1]: 98.3 ± 10.3 µM; cAMP EC200/cGMP EC200 [2]: 1

Q: Which “effect on level of cGMP” value [4] does the source give for `CCCOc1ccccc1-c1nc2nn[nH]c2c(=O)[nH]1` [Zaprinast] here?
A: did not quite double the level of cGMP

Q: For `Nc1nc2c(ncn2[C@@H]2O[C@@H]3COP(=O)(O)O[C@H]3[C@H]2O)c(=O)[nH]1` [cGMP, cyclic guanine 3′5′-monophosphate], which “greater Vmax for cGMP over cAMP” value (PDE10A [5]; Fujishige et al., 1999) is on record?
A: approximately 5 fold

Q: What about the Km (PDE10A [5]; read-out: Km for cGMP) of the same compound?
A: 3000 nM

Q: With `C=C[C@@]1(C)CC(=O)[C@]2(O)[C@@]3(C)[C@@H](O)CCC(C)(C)[C@@H]3[C@H](O)[C@H](OC(C)=O)[C@@]2(C)O1` [forskolin] as the compound, how does the fold induction at 1 µM ([6]; read-out: increase over basal cAMP) read?
A: 2 to 3

Q: And the activation at 1 µM ([6]; read-out: per cent of the maximal cAMP response)?
A: 20 to 25%
